Earlier results on one molecule are cited in patent US8859624B2, “Stable rasagiline composition” (Chongqing Pharmaceutical Research Institute Co., Ltd., priority 2009, dated 2014).

For the series the following is noted: taking food after oral administration.

`C#CCN[C@@H]1CCc2ccccc21` [Rasagiline, rasagiline]: the “decrease of blood drug concentration” value is given as 60%.
